The values below come from the OligoGym collection.

HELM strings list units from the 5' end as sugar, base in round brackets, then linkage (d deoxyribose, r ribose, m 2'-O-methyl, p phosphodiester). Strings are as the collection lists them; they lack the last nucleoside at the 3' end of the tested compound. [moe] = 2'-O-(2-methoxyethyl) (MOE); [sp] = phosphorothioate linkage; [m5C] = 5-methylcytosine

The target in this series is UBE3A-ATS. In words: mouse, dose not given. The following applies: ASO.

Turning to “RNA1{[moe]([m5C])[sp].[moe](T)p.[moe]([m5C])p.[moe]([m5C])p.[moe](A)p.d(G)[sp].d(T)[sp].d(T)[sp].d(T)[sp].d(T)[sp].d([m5C])[sp].d(G)[sp].d([m5C])[sp].d([m5C])[sp].d([m5C])[sp].[moe](G)p.[moe](T)p.[moe](T)[sp].[moe](A)}$$$$ (last 3' nucleoside missing)”, the 3 h FOB score came out at 3.3 score 0-7.
As for “RNA1{[moe](G)[sp].[moe]([m5C])p.[moe]([m5C])p.[moe](A)p.d(G)[sp].d(G)[sp].d(T)[sp].d(G)[sp].d(T)[sp].d([m5C])[sp].d(T)[sp].d(T)[sp].d(A)[sp].d(T)[sp].[moe](A)p.[moe](T)p.[moe]([m5C])p.[moe](T)[sp].[moe](A)}$$$$ (last 3' nucleoside missing)”, the 3 h FOB score turned out to be 1 score 0-7.
In the case of “RNA1{[moe]([m5C])[sp].[moe](T)p.[moe](T)p.[moe](A)p.[moe](G)p.d(A)[sp].d(T)[sp].d(G)[sp].d(T)[sp].d(G)[sp].d(T)[sp].d(T)[sp].d(T)[sp].d(A)[sp].d(T)[sp].[moe]([m5C])p.[moe]([m5C])p.[moe](A)[sp].[moe](A)}$$$$ (last 3' nucleoside missing)”, the 3 h FOB score turned out to be 1.2 score 0-7.
“RNA1{[moe](A)[sp].[moe](A)p.[moe]([m5C])p.[moe](G)p.[moe]([m5C])p.d(A)[sp].d(A)[sp].d(T)[sp].d(G)[sp].d(T)[sp].d(A)[sp].d(T)[sp].d([m5C])[sp].d(A)[sp].d(G)[sp].[moe](G)p.[moe]([m5C])p.[moe](A)[sp].[moe](A)}$$$$ (last 3' nucleoside missing)” displayed a 3 h FOB score of 1 score 0-7.
For “RNA1{[moe](G)[sp].[moe](A)p.[moe]([m5C])p.[moe](T)p.[moe](A)p.d(T)[sp].d([m5C])[sp].d(T)[sp].d([m5C])[sp].d(A)[sp].d(G)[sp].d([m5C])[sp].d(A)[sp].d([m5C])[sp].d(T)[sp].[moe](A)p.[moe](G)p.[moe](G)[sp].[moe](G)}$$$$ (last 3' nucleoside missing)” the value was 2 score 0-7; for “RNA1{[moe](T)[sp].[moe](G)p.[moe]([m5C])p.[moe](T)p.d(T)[sp].d([m5C])[sp].d(A)[sp].d([m5C])[sp].d([m5C])[sp].d(A)[sp].d(T)[sp].d(T)[sp].d(T)[sp].d(T)[sp].[moe](G)p.[moe](A)p.[moe]([m5C])p.[moe]([m5C])[sp].[moe](T)}$$$$ (last 3' nucleoside missing)”, 0 score 0-7; for “RNA1{[moe](G)[sp].[moe](T)p.[moe]([m5C])p.[moe](A)p.[moe](T)p.d([m5C])[sp].d(A)[sp].d([m5C])[sp].d([m5C])[sp].d(T)[sp].d([m5C])[sp].d(T)[sp].d([m5C])[sp].d(T)[sp].d(T)[sp].[moe]([m5C])p.[moe](A)p.[moe](G)[sp].[moe](G)}$$$$ (last 3' nucleoside missing)”, 1 score 0-7.
The substance “RNA1{[moe]([m5C])[sp].[moe](T)p.[moe]([m5C])p.[moe](A)[sp].d(G)[sp].d(T)[sp].d(T)[sp].d(A)[sp].d(G)[sp].d(G)[sp].d(T)[sp].d(T)[sp].[moe](A)p.[moe](G)p.[moe](T)p.[moe](G)[sp].[moe]([m5C])}$$$$ (last 3' nucleoside missing)” had a 3 h FOB score of 5.3 score 0-7.
For “RNA1{[moe](T)[sp].[moe](A)p.[moe](G)p.[moe](T)p.[moe]([m5C])p.d(T)[sp].d(A)[sp].d(A)[sp].d(G)[sp].d(G)[sp].d([m5C])[sp].d(A)[sp].d(G)[sp].d(T)[sp].d([m5C])[sp].[moe](A)p.[moe](G)p.[moe](G)[sp].[moe](G)}$$$$ (last 3' nucleoside missing)” the value was 6 score 0-7.
Take “RNA1{[moe]([m5C])[sp].[moe](T)p.[moe]([m5C])p.[moe](A)p.[moe](G)p.[moe](T)p.d(T)[sp].d(A)[sp].d(G)[sp].d(G)[sp].d(T)[sp].d(T)[sp].d(A)[sp].d(G)[sp].d(T)[sp].d(G)[sp].[moe]([m5C])p.[moe](A)[sp].[moe]([m5C])}$$$$ (last 3' nucleoside missing)”: the 3 h FOB score amounted to 4 score 0-7.
For “RNA1{[moe](T)[sp].[moe](A)p.[moe](T)p.[moe](T)p.[moe](G)p.[moe](G)p.d(T)[sp].d([m5C])[sp].d(A)[sp].d(T)[sp].d([m5C])[sp].d(T)[sp].d([m5C])[sp].d(G)[sp].d(G)[sp].d(G)[sp].[moe](T)p.[moe](A)[sp].[moe](T)}$$$$ (last 3' nucleoside missing)” the value was 4 score 0-7.
Turning to “RNA1{[moe]([m5C])[sp].[moe](G)p.[moe]([m5C])p.[moe](A)[sp].d(A)[sp].d(T)[sp].d(G)[sp].d(T)[sp].d(A)[sp].d(T)[sp].d([m5C])[sp].d(A)[sp].[moe](G)p.[moe](G)p.[moe]([m5C])p.[moe](A)[sp].[moe](A)}$$$$ (last 3' nucleoside missing)”, the 3 h FOB score was 1 score 0-7.
For “RNA1{[moe](G)[sp].[moe](G)p.[moe](T)p.[moe]([m5C])p.[moe]([m5C])p.d(A)[sp].d(T)[sp].d(A)[sp].d(G)[sp].d(A)[sp].d(T)[sp].d(G)[sp].d(T)[sp].d([m5C])[sp].d(A)[sp].[moe](G)p.[moe](T)p.[moe](T)[sp].[moe](A)}$$$$ (last 3' nucleoside missing)” the value was 5.5 score 0-7; for “RNA1{[moe]([m5C])[sp].[moe](T)p.[moe](A)p.[moe](A)p.[moe](A)p.d(A)[sp].d(T)[sp].d([m5C])[sp].d([m5C])[sp].d(A)[sp].d(T)[sp].d(T)[sp].d(T)[sp].d(G)[sp].d(T)[sp].[moe]([m5C])p.[moe]([m5C])p.[moe](A)[sp].[moe](G)}$$$$ (last 3' nucleoside missing)”, 3.3 score 0-7.
The substance “RNA1{[moe](G)[sp].[moe]([m5C])p.[moe](A)p.[moe](T)p.[moe](A)[sp].d([m5C])[sp].d([m5C])[sp].d([m5C])[sp].d(A)[sp].d(G)[sp].d(G)[sp].d(G)[sp].d(T)[sp].[moe](A)p.[moe](G)p.[moe](G)[sp].[moe](A)}$$$$ (last 3' nucleoside missing)” returned a 3 h FOB score of 1 score 0-7.
For “RNA1{[moe](T)[sp].[moe](G)p.[moe]([m5C])p.[moe](A)p.[moe](T)p.d(A)[sp].d([m5C])[sp].d([m5C])[sp].d([m5C])[sp].d(A)[sp].d(G)[sp].d(G)[sp].d(G)[sp].d(T)[sp].d(A)[sp].[moe](G)p.[moe](G)p.[moe](A)[sp].[moe](T)}$$$$ (last 3' nucleoside missing)” the value was 2 score 0-7; for “RNA1{[moe](G)[sp].[moe](G)p.[moe](A)p.[moe](G)p.[moe](G)p.d(G)[sp].d(A)[sp].d(G)[sp].d(G)[sp].d(A)[sp].d(A)[sp].d(A)[sp].d(A)[sp].d(T)[sp].d(T)[sp].[moe](A)p.[moe](T)p.[moe](T)[sp].[moe](T)}$$$$ (last 3' nucleoside missing)”, 0.5 score 0-7.
For “RNA1{[moe](T)[sp].[moe](T)p.[moe]([m5C])p.[moe](T)p.[moe](T)p.d(G)[sp].d([m5C])[sp].d(T)[sp].d(G)[sp].d(A)[sp].d(T)[sp].d([m5C])[sp].d(A)[sp].d([m5C])[sp].d(A)[sp].[moe](T)p.[moe](T)p.[moe](A)[sp].[moe]([m5C])}$$$$ (last 3' nucleoside missing)” the value was 0 score 0-7; for “RNA1{[moe](G)[sp].[moe]([m5C])p.[moe](T)p.[moe](A)p.[moe](T)p.d([m5C])[sp].d(T)[sp].d(G)[sp].d(T)[sp].d(A)[sp].d([m5C])[sp].d(A)[sp].d(A)[sp].d(A)[sp].d(A)[sp].[moe](T)p.[moe](G)p.[moe](G)[sp].[moe](A)}$$$$ (last 3' nucleoside missing)”, 0 score 0-7.
In the case of “RNA1{[moe](T)[sp].[moe](T)p.[moe](T)p.[moe](T)p.[moe](T)p.d([m5C])[sp].d([m5C])[sp].d(A)[sp].d(T)[sp].d(T)[sp].d(T)[sp].d(T)[sp].d(T)[sp].d([m5C])[sp].d(T)[sp].[moe]([m5C])p.[moe](T)p.[moe](T)[sp].[moe](A)}$$$$ (last 3' nucleoside missing)” it was 1.3 score 0-7.
For the substance “RNA1{[moe](T)[sp].[moe](T)p.[moe](G)p.[moe]([m5C])p.[moe](T)p.[moe](G)p.d(A)[sp].d(T)[sp].d([m5C])[sp].d(A)[sp].d([m5C])[sp].d(A)[sp].d(T)[sp].d(T)[sp].d(A)[sp].d([m5C])[sp].[moe]([m5C])p.[moe]([m5C])[sp].[moe](A)}$$$$ (last 3' nucleoside missing)”, the 3 h FOB score turned out to be 1 score 0-7.
For the substance “RNA1{[moe](T)[sp].[moe](G)p.[moe]([m5C])p.[moe](T)p.[moe](T)p.[moe]([m5C])p.d(A)[sp].d([m5C])[sp].d([m5C])[sp].d(A)[sp].d(T)[sp].d(T)[sp].d(T)[sp].d(T)[sp].d(G)[sp].d(A)[sp].[moe]([m5C])p.[moe]([m5C])[sp].[moe](T)}$$$$ (last 3' nucleoside missing)”, the 3 h FOB score was 0 score 0-7.
For “RNA1{[moe](G)[sp].[moe](G)p.[moe](T)p.[moe]([m5C])p.[moe](A)p.d(A)[sp].d([m5C])[sp].d([m5C])[sp].d(A)[sp].d(A)[sp].d(T)[sp].d(T)[sp].d(T)[sp].d(G)[sp].d([m5C])[sp].[moe](T)p.[moe](A)p.[moe](T)[sp].[moe](T)}$$$$ (last 3' nucleoside missing)” the value was 3.8 score 0-7; for “RNA1{[moe](G)[sp].[moe]([m5C])p.[moe](T)p.[moe](G)p.[moe](T)p.d(A)[sp].d(A)[sp].d(G)[sp].d(T)[sp].d(A)[sp].d(T)[sp].d(A)[sp].d(G)[sp].d(A)[sp].d(T)[sp].[moe](G)p.[moe]([m5C])p.[moe]([m5C])[sp].[moe](T)}$$$$ (last 3' nucleoside missing)”, 2 score 0-7; for “RNA1{[moe](G)[sp].[moe]([m5C])p.[moe](T)p.[moe](T)p.[moe](A)p.d(G)[sp].d(G)[sp].d([m5C])[sp].d(A)[sp].d(A)[sp].d(T)[sp].d(G)[sp].d(G)[sp].d(A)[sp].d([m5C])[sp].[moe](T)p.[moe](T)p.[moe](A)[sp].[moe](G)}$$$$ (last 3' nucleoside missing)”, 5.5 score 0-7.
In the case of “RNA1{[moe](G)[sp].[moe](T)p.[moe](G)p.[moe](T)p.d(G)[sp].d(T)[sp].d(T)[sp].d(T)[sp].d(T)[sp].d(T)[sp].d([m5C])[sp].d([m5C])[sp].d(A)[sp].d(T)[sp].[moe](T)p.[moe](T)p.[moe](T)p.[moe](T)[sp].[moe]([m5C])}$$$$ (last 3' nucleoside missing)” it was 0 score 0-7.
